The results in this text go back to US20180244699A1, “1-HYDROXY-3H-2,1-BENZOXABOROLE DERIVATIVES AND THEIR USE AS MICROBIOCIDES” (Syngenta Participations AG, priority 2015, published 2018).

Data set [1] relates to Mycosphaerella graminicola (Septoria tritici). The data set is described as follows: Mycosphaerella graminicola (Septoria tritici) / liquid culture (Septoria blotch). In kind it is cell-based. Conditions: Zymoseptoria tritici, growth inhibition photometrically 4-5 days after application, compared to untreated control.
For data set [2], the system named is Monographella nivalis (Microdochium nivale). The data set is described as follows: Monographella nivalis (Microdochium nivale) / liquid culture (foot rot cereals). The conditions noted are these: growth inhibition photometrically 4-5 days after application, compared to untreated control. In kind it is cell-based. The essentials: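 Conidia from cryogenic storage were mixed into potato dextrose broth and added to wells holding test compound in DMSO. Incubation was at 24° C, with growth inhibition measured photometrically 4-5 days after application.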

The next data set concerns Sclerotinia sclerotiorum. The experiment in a line: Sclerotinia sclerotiorum / liquid culture (cottony rot). Type of data set: cell-based. Conditions: growth inhibition photometrically 3-4 days after application, compared to untreated control. The method, then:
17. Sclerotinia sclerotiorum/Liquid Culture (Cottony Rot) Mycelia fragments of a newly grown liquid culture of the fungus are directly mixed into nutrient broth (PDB potato dextrose broth). After placing a (DMSO) solution of test compound into a microtiter plate (96-well format) the nutrient broth containing the fungal material is added. The test plates are incubated at 24° C. and the inhibition of growth is determined photometrically 3-4 days after application.

For data set [3], the system named is Thanatephorus cucumeris (Rhizoctonia solani). The experiment in a line: Thanatephorus cucumeris (Rhizoctonia solani) / liquid culture (foot rot, damping-off). In kind it is cell-based. Conditions: growth inhibition photometrically 3-4 days after application, compared to untreated control. The method, then:
16. Thanatephorus cucumeris (Rhizoctonia solani)/Liquid Culture (Foot Rot, Damping-Off) Mycelia fragments of a newly grown liquid culture of the fungus are directly mixed into nutrient broth (PDB potato dextrose broth). After placing a (DMSO) solution of the test compounds into a microtiter plate (96-well format), the nutrient broth containing the fungal material is added. The test plates are incubated at 24° C. and the inhibition of growth is determined photometrically 3-4 days after application.

In a further data set the test system is Gaeumannomyces graminis. The experiment in a line: Gaeumannomyces graminis / liquid culture (take-all of cereals). Type of data set: cell-based. Conditions: growth inhibition photometrically 4-5 days after application, compared to untreated control. The essentials: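 Mycelial fragments from cryogenic storage in potato dextrose broth added to compound in DMSO, 96-well format. Incubated at 24° C; growth inhibition read photometrically 4-5 days after application.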

The subject of data set [4] is Mycosphaerella arachidis (Cercospora arachidicola). The experiment in a line: Mycosphaerella arachidis (Cercospora arachidicola) / liquid culture (early leaf spot). Type of data set: cell-based. The conditions noted are these: growth inhibition photometrically 4-5 days after application, compared to untreated control. The method, then:
9. Mycosphaerella arachidis (Cercospora arachidicola)/Liquid Culture (Early Leaf Spot) Conidia of the fungus from cryogenic storage are directly mixed into nutrient broth (PDB potato dextrose broth). After placing a (DMSO) solution of test compound into a microtiter plate (96-well format), the nutrient broth containing the fungal spores is added. The test plates are incubated at 24° C. and the inhibition of growth is determined photometrically 4-5 days after application.

Another data set deals with Phytophthora infestans. The experiment in a line: whole plant or invertebrate. Type of data set: in vivo. Conditions: in Solanum lycopersicum, foliar, read-out: control of Phytophthora infestans.
The test system of another data set is Pythium ultimum. The experiment in a line: Pythium ultimum / liquid culture (seedling damping off). Conditions: Globisporangium ultimum, growth inhibition photometrically 2-3 days after application, compared to untreated control. Type of data set: cell-based. Summed up:
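Fungal mycelia fragments and oospores from fresh liquid culture mixed into potato dextrose broth and added to DMSO solutions of test compound. Incubated at 24° C.; growth inhibition read photometrically 2-3 days after application.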

In data set [5] the test system is Glomerella lagenarium (Colletotrichum lagenarium). The experiment in a line: Glomerella lagenarium (Colletotrichum lagenarium) / liquid culture (anthracnose). In kind it is cell-based. The conditions noted are these: Colletotrichum orbiculare, growth inhibition photometrically 3-4 days after application, compared to untreated control. Summed up:
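Conidia from cryogenic storage suspended in potato dextrose broth and added to test compound in DMSO. Incubation at 24° C; growth inhibition read photometrically 3-4 days after application.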

Data set [6] relates to Puccinia recondite f. sp. tritici. The data set is described as follows: Puccinia recondite f. sp. tritici / wheat / leaf disc preventative (brown rust). In kind it is in vivo. The conditions noted are these: foliar, wheat leaf segments, inoculated 1 day after application, compared to untreated control. The method, then:
13. Puccinia recondite f. Sp. Tritici/Wheat/Leaf Disc Preventative (Brown Rust) Wheat leaf segments cv. Kanzler are placed on agar in multiwell plates (24-well format) and sprayed with the formulated test compound diluted in water. The leaf disks are inoculated with a spore suspension of the fungus 1 day after application. The inoculated leaf segments are incubated at 19° C. and 75% rh under a light regime of 12 h light/12 h darkness in a climate cabinet and the activity of a compound is assessed as percent disease control compared to untreated when an appropriate level of disease damage appears in untreated check leaf segments (7-9 days after application).

Data set [7] deals with Blumeria graminis f. sp. tritici (Erysiphe graminis f. sp. tritici). The experiment in a line: Blumeria graminis f. sp. tritici / wheat / leaf disc preventative (powdery mildew on wheat). In kind it is in vivo. Conditions: 200 ppm, wheat leaf segments, inoculated 1 day after application, compared to untreated control. The procedure:
4. Blumeria Graminis f. Sp. Tritici (Erysiphe graminis f. Sp. Tritici)/Wheat/Leaf Disc Preventative (Powdery Mildew on Wheat)
Wheat leaf segments cv. Kanzler are placed on agar in a multiwell plate (24-well format) and sprayed with the formulated test compound diluted in water. The leaf disks are inoculated by shaking powdery mildew infected plants above the test plates 1 day after application. The inoculated leaf disks are incubated at 20° C. and 60% rh under a light regime of 24 h darkness followed by 12 h light/12 h darkness in a climate chamber and the activity of a compound is assessed as percent disease control compared to untreated when an appropriate level of disease damage appears on untreated check leaf segments (6-8 days after application).

In the next data set the test system is Pyrenophora teres. The data set is described as follows: Pyrenophora teres / barley / leaf disc preventative (net blotch). Type of data set: in vivo. The conditions noted are these: 200 ppm, barley leaf segments, inoculated 2 days after application, compared to untreated control. The procedure: 14. Pyrenophora teres/Barley/Leaf Disc Preventative (Net Blotch) Barley leaf segments cv. Hasso are placed on agar in a multiwell plate (24-well format) and sprayed with the formulated test compound diluted in water. The leaf segments are inoculated with a spore suspension of the fungus 2 days after application. The inoculated leaf segments are incubated at 20° C. and 65% rh under a light regime of 12 h light/12 h darkness in a climate cabinet and the activity of a compound is assessed as disease control compared to untreated when an appropriate level of disease damage appears in untreated check leaf segments (5-7 days after application).

Structures are written as SMILES.

`COC(=O)c1ccc2c(c1O)B(O)OC2` [Compound 2, methyl 1,7-dihydroxy-3H-2,1-benzoxaborole-6-carboxylate] registered a melting point of 146 to 148 °C. For the same compound, in [1], the inhibition of growth at 20 ppm was at least 80%. The compound further came in with an inhibition of growth at 20 ppm in data set [2] of at least 80%. Moreover, in the data set with Sclerotinia sclerotiorum, the inhibition of growth at 20 ppm is at least 80%. The inhibition of growth at 20 ppm in [3] was at least 80%. The inhibition of growth at 20 ppm in the data set with Gaeumannomyces graminis was at least 80%. Further, in [4], the inhibition of growth at 20 ppm is at least 80%. In the data set on Phytophthora infestans, the pest or weed control at 200 ppm was at least 80%. This compound also yielded an inhibition of growth at 20 ppm in the data set on Pythium ultimum of at least 80%. In data set [5], this compound returned an inhibition of growth at 20 ppm of at least 80%.
On to `CCOC(=O)c1ccc2c(c1Cl)B(O)OC2` [Compound 9, ethyl 7-chloro-1-hydroxy-3H-2,1-benzoxaborole-6-carboxylate], for which the melting point is 132 to 133 °C. The pest or weed control at 200 ppm in data set [6] was at least 80%. This compound had an inhibition of growth at 20 ppm in data set [1] of at least 80%. This compound also displayed an inhibition of growth at 20 ppm in [2] of at least 80%. The inhibition of growth at 20 ppm in data set [3] is at least 80%. Further, in the data set with Gaeumannomyces graminis, the inhibition of growth at 20 ppm was at least 80%. The pest or weed control at 200 ppm in the data set with Phytophthora infestans was at least 80%. This compound yielded an inhibition of growth at 20 ppm in the data set with Pythium ultimum of at least 80%. In data set [5], this compound registered an inhibition of growth at 20 ppm of at least 80%.
For the compound `COc1c(C(=O)NC(C)c2ncc(F)cc2F)ccc2c1B(O)OC2` (centres unmarked) [Compound 20, N-[1-(3,5-difluoro-2-pyridyl)ethyl]-1-hydroxy-7-methoxy-3H-2,1-benzoxaborole-6-carboxamide], the “control of Blumeria graminis f. sp. tritici” value in data set [7] is recorded as “at least 80%”.
Turning to `CCc1ccc(NC(=O)c2ccc3c(c2OC)B(O)OC3)cc1` [Compound 29, N-(4-ethylphenyl)-1-hydroxy-7-methoxy-3H-2,1-benzoxaborole-6-carboxamide], the inhibition of growth at 20 ppm (in [1]; in [2]; in the data set on Pythium ultimum; in [5]) was at least 80% in each case. The “control of Pyrenophora teres” value in the data set with Pyrenophora teres is recorded as “at least 80%”.
In turn, `COc1c(C(=O)O)ccc2c1B(O)OC2` [Compound 131, 1-hydroxy-7-methoxy-3H-2,1-benzoxaborole-6-carboxylic acid] gave a melting point of 181 to 182.4 °C.
